Molecular target: human NaV 1.7 (Homo sapiens, UniProt Q15858)
Assay: E-VIPR optical membrane potential assay with electrical stimulation
Format: cell-based
Conditions: sodium channel inhibition; read-out: Binned Activity Data (IC50)
Method in brief: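 Membrane-potential read-out: background-subtracted 460 nm/580 nm ratio during a 9 s current-controlled stimulus, 400 Hz scan. Before stimulation, NaV1.7-HEK cells carried coumarin/oxonol dye and compound (final DMSO 0.625%) for 20–35 min at room temperature; tetracaine 125 μM served as positive control.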

Sequence of human NaV 1.7 (Q15858 whole entry): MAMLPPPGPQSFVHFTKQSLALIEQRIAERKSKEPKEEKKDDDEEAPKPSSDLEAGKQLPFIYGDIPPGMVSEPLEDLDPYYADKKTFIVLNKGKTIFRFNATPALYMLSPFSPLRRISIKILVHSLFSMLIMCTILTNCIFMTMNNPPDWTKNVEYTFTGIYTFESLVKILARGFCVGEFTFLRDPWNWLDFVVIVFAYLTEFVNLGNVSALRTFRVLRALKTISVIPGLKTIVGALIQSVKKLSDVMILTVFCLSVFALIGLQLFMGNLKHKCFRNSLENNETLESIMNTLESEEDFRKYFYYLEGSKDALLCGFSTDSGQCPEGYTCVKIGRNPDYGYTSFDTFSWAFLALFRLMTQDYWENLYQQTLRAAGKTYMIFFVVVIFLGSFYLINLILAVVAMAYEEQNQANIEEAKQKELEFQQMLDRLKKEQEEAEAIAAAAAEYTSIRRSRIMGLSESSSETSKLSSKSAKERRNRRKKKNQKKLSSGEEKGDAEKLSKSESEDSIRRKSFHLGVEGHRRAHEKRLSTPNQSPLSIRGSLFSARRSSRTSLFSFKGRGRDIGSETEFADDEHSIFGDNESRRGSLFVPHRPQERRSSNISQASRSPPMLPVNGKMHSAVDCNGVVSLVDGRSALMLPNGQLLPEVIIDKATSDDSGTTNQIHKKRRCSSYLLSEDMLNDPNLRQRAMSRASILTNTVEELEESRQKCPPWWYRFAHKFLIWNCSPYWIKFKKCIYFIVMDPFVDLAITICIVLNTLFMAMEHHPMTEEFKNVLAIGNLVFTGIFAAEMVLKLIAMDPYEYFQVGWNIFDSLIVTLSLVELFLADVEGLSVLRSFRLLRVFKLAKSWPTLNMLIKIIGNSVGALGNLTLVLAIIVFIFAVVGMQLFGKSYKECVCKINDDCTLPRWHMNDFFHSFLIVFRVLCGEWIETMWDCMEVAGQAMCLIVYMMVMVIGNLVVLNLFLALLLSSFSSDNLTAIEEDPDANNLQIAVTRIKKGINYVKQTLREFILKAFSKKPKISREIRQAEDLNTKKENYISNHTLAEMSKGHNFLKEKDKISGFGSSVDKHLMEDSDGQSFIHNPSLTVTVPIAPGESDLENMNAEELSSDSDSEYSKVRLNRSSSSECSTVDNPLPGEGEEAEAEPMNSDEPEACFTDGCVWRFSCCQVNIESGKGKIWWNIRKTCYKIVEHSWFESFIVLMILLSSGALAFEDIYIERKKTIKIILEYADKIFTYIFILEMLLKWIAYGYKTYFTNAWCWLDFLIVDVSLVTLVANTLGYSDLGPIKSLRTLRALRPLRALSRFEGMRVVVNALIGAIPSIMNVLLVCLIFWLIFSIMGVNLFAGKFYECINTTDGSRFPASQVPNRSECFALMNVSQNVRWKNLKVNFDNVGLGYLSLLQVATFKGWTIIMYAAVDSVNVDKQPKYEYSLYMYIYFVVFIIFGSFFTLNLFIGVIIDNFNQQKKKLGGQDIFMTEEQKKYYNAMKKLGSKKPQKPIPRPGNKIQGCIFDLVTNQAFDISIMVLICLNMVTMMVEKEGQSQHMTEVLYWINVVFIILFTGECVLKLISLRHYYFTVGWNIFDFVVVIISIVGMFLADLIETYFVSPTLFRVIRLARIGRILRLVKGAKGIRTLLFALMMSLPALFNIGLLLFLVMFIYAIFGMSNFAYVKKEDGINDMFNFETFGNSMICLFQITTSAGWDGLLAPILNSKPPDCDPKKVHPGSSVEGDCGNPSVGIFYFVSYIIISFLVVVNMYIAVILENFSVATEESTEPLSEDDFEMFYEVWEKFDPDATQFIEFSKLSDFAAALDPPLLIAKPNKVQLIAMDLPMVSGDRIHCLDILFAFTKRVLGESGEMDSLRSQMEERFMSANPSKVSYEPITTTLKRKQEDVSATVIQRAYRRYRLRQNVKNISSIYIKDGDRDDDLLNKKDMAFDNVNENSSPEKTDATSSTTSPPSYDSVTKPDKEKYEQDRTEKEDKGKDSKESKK

Row | Structure (SMILES) | IC50
1 | CCCOc1ccc(C(=O)N2CCC3(CC2)Oc2cccnc2-n2cccc23)cc1C(F)(F)F [Compound 805] | ≤ 2 µM
2 | N#Cc1ccc2n1-c1ccccc1OC21CCN(C(=O)c2ccc(F)cc2Cl)CC1 [Compound 807] | > 5 µM
3 | CS(=O)(=O)c1ccc(C(=O)N2CCC3(CC2)Oc2cc(Cl)ccc2-n2cccc23)c(Cl)c1 [Compound 808] | ≤ 2 µM
4 | CC(C)(CO)c1ccc(C(=O)N2CCC3(CC2)Oc2ccccc2-n2c(C#N)ccc23)cc1 [Compound 810] | ≤ 2 µM
5 | Cn1ncc2c1-c1ccccc1OC21CCN(C(=O)c2ccc(OC(F)F)cc2)CC1 [Compound 811] | > 5 µM
6 | CCCOc1ccc(C(=O)N2CCC3(CC2)Oc2cc(F)ccc2-n2cccc23)cc1OC [Compound 812] | ≤ 2 µM
7 | Cc1c(C(=O)N2CCC3(CC2)Oc2ccccc2-c2c3cnn2C)cnn1-c1ccc(F)cc1 [Compound 814] | > 5 µM
8 | O=C(c1ccc(C(O)C2CC2)cc1)N1CCC2(CC1)Oc1ccccc1-n1c(C(F)(F)F)ccc12 (stereo not drawn) [Compound 815] | ≤ 2 µM
9 | COC(C)(C)c1ccc(C(=O)N2CCC3(CC2)Oc2ccccc2-n2cccc23)cc1C [Compound 817] | ≤ 2 µM
10 | CCCOc1ccc(C(=O)N2CCC3(CC2)Oc2ccccc2-n2c(C)ccc23)cc1C(F)(F)F [Compound 818] | ≤ 2 µM
11 | COc1ccc(C(=O)N2CCC3(CC2)Oc2ccccc2-n2c3ccc2S(C)(=O)=O)cc1C(F)(F)F [Compound 819] | ≤ 2 µM
12 | COCCOc1ccc(C(=O)N2CCC3(CC2)Oc2ccccc2-n2c(C(C)=O)ccc23)cc1OC [Compound 820] | ≤ 2 µM
13 | CCS(=O)(=O)c1ccc(C(=O)N2CCC3(CC2)Oc2ccccc2-c2c3cnn2C)cc1C [Compound 821] | ≤ 2 µM
14 | COc1ccc2c(c1)-c1c(cnn1C)C1(CCN(C(=O)c3ccc(OC(C)C)c(C)c3)CC1)O2 [Compound 822] | ≤ 2 µM
15 | Cn1cc2c(n1)-c1ccccc1OC21CCN(C(=O)c2ccc(S(=O)(=O)NC(C)(C)C)cc2)CC1 [Compound 824] | ≤ 2 µM
16 | COc1ccc(C(=O)N2CCC3(CC2)Oc2ccccc2-n2c(C#N)ccc23)cc1C(F)(F)F [Compound 826] | ≤ 2 µM
17 | Cn1ncc2c1-c1ccccc1OC21CCN(C(=O)c2ccc(OC3CCCC3)cc2)CC1 [Compound 828] | ≤ 2 µM
18 | CC(C)Oc1ccc(C(=O)N2CCC3(CC2)Oc2ccccc2-c2nn(C)cc23)cn1 [Compound 830] | ≤ 2 µM
19 | COc1cccc(C(=O)N2CCC3(CC2)Oc2ccccc2-c2c3cnn2C)c1OC [Compound 831] | ≤ 2 µM
20 | COCc1ccc2c(c1)OC1(CCN(C(=O)c3ccc(S(=O)(=O)C(C)C)cc3)CC1)c1ccc(C#N)n1-2 [Compound 832] | > 5 µM

Row | Structure (SMILES) | IC50
21 | CCc1ccccc1C(=O)N1CCC2(CC1)Oc1cc(Cl)ccc1-n1cccc12 [Compound 833] | ≤ 2 µM
22 | Cc1nc(C(=O)N2CCC3(CC2)Oc2ccccc2-c2c3cnn2C)ccc1OC(C)C [Compound 834] | ≤ 2 µM
23 | O=C(c1ccc(OCC2CCCO2)c(C(F)(F)F)c1)N1CCC2(CC1)Oc1ccccc1-n1cccc12 (stereo not drawn) [Compound 836] | ≤ 2 µM
24 | COc1cc(C(=O)N2CCC3(CC2)Oc2ccccc2-n2cccc23)ccc1O[C@H]1CCOC1 [Compound 837] | ≤ 2 µM
25 | Cc1cc(C(=O)N2CCC3(CC2)Oc2ccccc2-c2c3cnn2C)ccc1OC(F)(F)F [Compound 838] | 2 to 5 µM
26 | CCc1ccc(C(=O)N2CCC3(CC2)Oc2ccccc2-n2c(C#N)ccc23)cc1OC [Compound 839] | ≤ 2 µM
27 | O=C(c1ccc(S(=O)(=O)C2CCOC2)cc1)N1CCC2(CC1)Oc1ccccc1-n1c(C(F)(F)F)ccc12 (stereo not drawn) [Compound 840] | ≤ 2 µM
28 | Cn1ncc2c1-c1ccccc1OC21CCN(C(=O)c2cccc3c2OCCC3)CC1 [Compound 841] | ≤ 2 µM
29 | Cn1ncc2c1-c1ccccc1OC21CCN(C(=O)c2ccc3nc(Cl)sc3c2)CC1 [Compound 842] | > 5 µM
30 | Cn1cc2c(n1)-c1ccccc1OC21CCN(C(=O)c2ccc3nc(Cl)sc3c2)CC1 [Compound 843] | 2 to 5 µM
31 | CC(C)(C)NS(=O)(=O)c1ccc(C(=O)N2CCC3(CC2)Oc2ccccc2-n2c(C#N)ccc23)cc1 [Compound 844] | ≤ 2 µM
32 | COc1ccccc1C(=O)N1CCC2(CC1)Oc1cc(F)ccc1-c1c2cnn1C [Compound 845] | ≤ 2 µM
33 | O=C(c1ccc(OCCO)cc1)N1CCC2(CC1)Oc1ccccc1-n1c(C(F)(F)F)ccc12 [Compound 846] | ≤ 2 µM
34 | COc1cc(C(=O)N2CCC3(CC2)Oc2ccccc2-n2cccc23)ccc1OCC(C)(C)OC [Compound 847] | ≤ 2 µM
35 | CCc1ccc(C(=O)N2CCC3(CC2)Oc2cc(CO)ccc2-n2cccc23)cc1OC [Compound 848] | ≤ 2 µM
36 | CC(C)(C)c1ccc(C(=O)N2CCC3(CC2)Oc2ccccc2-n2c(C#N)ccc23)cn1 [Compound 849] | > 5 µM
37 | COc1cc(C(=O)N2CCC3(CC2)Oc2cc(Cl)ccc2-n2cccc23)ccc1OCCS(C)(=O)=O [Compound 851] | ≤ 2 µM
38 | Cc1cc2n(c1)-c1ccccc1OC21CCN(C(=O)c2ccc(OC(C)C)c(C)c2)CC1 [Compound 852] | ≤ 2 µM
39 | COc1c(CO)cccc1C(=O)N1CCC2(CC1)Oc1ccccc1-c1c2cnn1C [Compound 853] | ≤ 2 µM

Next, values leading:

Row | IC50 | Structure (SMILES)
40 | 2 to 5 µM | N#Cc1ccc2n1-c1ccccc1OC21CCN(C(=O)c2ccc(OC3CNC3)cc2)CC1 [Compound 854]
41 | ≤ 2 µM | COc1cc(C(=O)N2CCC3(CC2)Oc2cc(F)ccc2-n2cccc23)ccc1C(C)(C)C [Compound 855]
42 | ≤ 2 µM | Cn1ncc2c1-c1ccccc1OC21CCN(C(=O)c2ccc(O)c(F)c2)CC1 [Compound 856]
43 | ≤ 2 µM | COc1ccc(C(=O)N2CCC3(CC2)Oc2cc(Cl)ccc2-n2cccc23)cc1C(F)(F)F [Compound 857]
44 | ≤ 2 µM | COc1ccc(Cl)cc1C(=O)N1CCC2(CC1)Oc1cc(Cl)ccc1-n1cccc12 [Compound 858]
45 | 2 to 5 µM | CCS(=O)(=O)c1ccc(C(=O)N2CCC3(CC2)Oc2ccccc2-c2c3cnn2C)cc1 [Compound 859]
46 | ≤ 2 µM | Cn1ncc2c1-c1ccccc1OC21CCN(C(=O)c2cccc3c2CC(C)(C)O3)CC1 [Compound 860]
47 | ≤ 2 µM | Cn1ncc2c1-c1ccccc1OC21CCN(C(=O)c2ccc3c(ccn3C)c2)CC1 [Compound 861]
48 | ≤ 2 µM | Cn1ncc2c1-c1ccccc1OC21CCN(C(=O)c2cccnc2Oc2ccc(F)cc2)CC1 [Compound 862]
49 | ≤ 2 µM | CCc1ccc(C(=O)N2CCC3(CC2)Oc2cc(C(=O)N(C)C)ccc2-n2cccc23)cc1OC [Compound 863]
50 | ≤ 2 µM | N#Cc1ccc2n1-c1ccccc1OC21CCN(C(=O)c2ccc(C3(O)COC3)cc2)CC1 [Compound 864]
51 | ≤ 2 µM | CCOc1ccc(C(=O)N2CCC3(CC2)Oc2ccccc2-c2c3cnn2C)cc1OC [Compound 866]
52 | ≤ 2 µM | Cn1ncc2c1-c1ccccc1OC21CCN(C(=O)c2cccc3c2cnn3C)CC1 [Compound 867]
53 | 2 to 5 µM | Cc1cccc(C(=O)N2CCC3(CC2)Oc2ccccc2-c2c3cnn2C)c1O [Compound 868]
54 | ≤ 2 µM | CC(C)(C)S(=O)(=O)c1ccc(C(=O)N2CCC3(CC2)Oc2ccccc2-n2c(C#N)ccc23)cc1 [Compound 869]
55 | ≤ 2 µM | O=C(c1cccc(Cl)c1)N1CCC2(CC1)Oc1cc(Cl)ccc1-n1cccc12 [Compound 870]
56 | ≤ 2 µM | COc1ccc(C(=O)N2CCC3(CC2)Oc2ccccc2-n2c(C(F)(F)F)ccc23)cc1Cl [Compound 871]

Row | IC50 | Structure (SMILES)
57 | ≤ 2 µM | COc1ccc(C(=O)N2CCC3(CC2)Oc2ccccc2-n2c(C(F)(F)F)ccc23)nc1C [Compound 872]
58 | ≤ 2 µM | O=C(c1ccc(S(=O)(=O)CC2CCC2)cn1)N1CCC2(CC1)Oc1ccccc1-n1c(C(F)(F)F)ccc12 [Compound 873]
59 | ≤ 2 µM | CC(C)CS(=O)(=O)c1ccc(C(=O)N2CCC3(CC2)Oc2ccccc2-n2c(C(F)(F)F)ccc23)nc1 [Compound 874]
60 | 2 to 5 µM | COc1ccc(C(=O)N2CCC3(CC2)Oc2ccccc2-n2c(C(F)(F)F)ccc23)c(F)c1 [Compound 875]
61 | ≤ 2 µM | Cc1cc(C(F)F)n2ncc(C(=O)N3CCC4(CC3)Oc3ccccc3-n3c(C(F)(F)F)ccc34)c2n1 [Compound 876]
62 | ≤ 2 µM | O=C(c1ccc(S(=O)(=O)CC2CCOC2)cn1)N1CCC2(CC1)Oc1ccccc1-n1c(C(F)(F)F)ccc12 (stereo not drawn) [Compound 877]
63 | ≤ 2 µM | O=C(c1ccc(O)c(Cl)c1)N1CCC2(CC1)Oc1ccccc1-n1c(C(F)(F)F)ccc12 [Compound 878]
64 | ≤ 2 µM | CC(C)(C)Sc1ccc(C(=O)N2CCC3(CC2)Oc2ccccc2-n2c(C(F)(F)F)ccc23)cc1 [Compound 879]
65 | 2 to 5 µM | CC(C)(C)[S@@+]([O-])c1ccc(C(=O)N2CCC3(CC2)Oc2ccccc2-n2c(C(F)(F)F)ccc23)cc1 [Compound 880]
66 | ≤ 2 µM | CC(C)S(=O)(=O)c1ccc(C(=O)N2CCC3(CC2)Oc2ccccc2-n2c(C(F)(F)F)ccc23)nc1 [Compound 881]
67 | 2 to 5 µM | CC(C)(C)[S+]([O-])c1ccc(C(=O)N2CCC3(CC2)Oc2ccccc2-n2c(C(F)(F)F)ccc23)cc1 (stereo not drawn) [Compound 882]
68 | 2 to 5 µM | CC(C)(C)[S@+]([O-])c1ccc(C(=O)N2CCC3(CC2)Oc2ccccc2-n2c(C(F)(F)F)ccc23)cc1 [Compound 883]
69 | ≤ 2 µM | COc1ccc(C(=O)N2CCC3(CC2)Oc2ccccc2-n2c(C(F)(F)F)ccc23)cc1C [Compound 884]
70 | ≤ 2 µM | O=C(c1ccccc1OC(F)F)N1CCC2(CC1)Oc1ccccc1-c1c2cnn1C(F)F [Compound 889]
71 | ≤ 2 µM | COc1ccc(C(=O)N2CCC3(CC2)Oc2ccccc2-c2c3cnn2C(F)(F)F)cc1OC [Compound 890]
72 | ≤ 2 µM | O=C(c1ccc(OS(=O)(=O)C(F)(F)F)cc1)N1CCC2(CC1)Oc1ccccc1-n1c(C(F)(F)F)ccc12 [Compound 891]

— US9365588B2, “Benzoxazines as modulators of ion channels” (Vertex Pharmaceuticals Incorporated, priority 2011, dated 2016)
